Measured values published in patent publication EP4553077A1 (Kinoteck Therapeutics Co., Ltd, priority 2022, dated 2024).

molecular target: Ba/F3-TEL-FGFR2 (Homo sapiens, UniProt P21802+P41212); experiment: Cell viability (proliferation inhibition) of Ba/F3 cells, CellTiter Glo; settings: read-out: Ba/F3 cell FGFR2 (IC50 nM), 72 h
Sequence (P21802 481-770 limits assumed, one chain of several): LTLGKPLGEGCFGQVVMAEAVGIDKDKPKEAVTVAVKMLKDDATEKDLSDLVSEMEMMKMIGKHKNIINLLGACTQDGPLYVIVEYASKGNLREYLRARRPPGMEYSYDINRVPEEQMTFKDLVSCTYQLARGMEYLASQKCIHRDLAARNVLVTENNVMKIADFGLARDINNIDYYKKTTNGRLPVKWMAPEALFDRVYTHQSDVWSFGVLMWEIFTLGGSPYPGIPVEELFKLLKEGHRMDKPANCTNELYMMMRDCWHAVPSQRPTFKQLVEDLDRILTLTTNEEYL

C=C(C)C(=O)Nc1ccc(F)c(-c2c(-c3ccc(N=S4(=O)CCCCC4)c(F)c3)c3c(N)ncnc3n2C)c1 [Compound 12, N-(3-(4-amino-5-(3-fluoro-4-((1-oxotetrahydro-2H-1 λ^6-thiopyran-1-ylidene)amino)phenyl) -7-methyl-7H-pyrrolo [2,3-d]pyrimidin-6-yl) -4-fluorophenyl) methacrylamide] and C=C(C)C(=O)Nc1cc(-c2c(-c3ccc(N=S4(=O)CCCCC4)c(F)c3)c3c(N)ncnc3n2C)ccc1F [Compound 38, N-(5-(4-amino-5-(3-fluoro-4-((1-oxotetrahydro-2H-1 λ^6-thiopyran-1-ylidene)amino)phenyl) -7-methyl-7H-pyrrolo [2,3-d]pyrimidin-6-yl) -2-fluorophenyl) methacrylamide] are within 1.5-fold of each other in IC50: 276 nM for the first, 247 nM for the second.

First: C=C(C)C(=O)Nc1ccc(-c2c(-c3ccc(N=S(=O)(CC)CC)cc3)c3c(N)ncnc3n2CCOC)c(F)c1 [Compound 86]
Second: C=C(C)C(=O)Nc1ccc(-c2c(-c3ccc(N=S(=O)(CC)CC)cc3)c3c(N)ncnc3n2C)c(C(F)F)c1 [Compound 73]
The IC50 of the first is 6.1-fold higher: 67.4 nM for the first, 11.1 nM for the second.

Going from C=C(C)C(=O)Nc1ccc(-c2c(-c3ccc(N=S(=O)(CC)CC)cc3F)c3c(N)ncnc3n2C)c(F)c1 [Compound 85] to C=C(C)C(=O)Nc1ccc(-c2c(-c3ccc(N=S(C)(C)=O)c(F)c3)c3c(N)ncnc3n2C)c(F)c1 [Compound 42], the IC50 falls from 907 nM to 32.9 nM (28-fold).

Compared with C=C(C)C(=O)Nc1ccc(-c2c(-c3ccc(N=S(=O)(N4CCCC4)C(F)(F)F)c(F)c3)c3c(N)ncnc3n2C)cc1 (centres unmarked) [Compound 47, N-(4-(4-amino-5-(3-fluoro-4-((oxo (pyrrolidine-1-yl) (trifluoromethyl) - λ^6-sulfanylidene)amino)phenyl) -7-methyl-7H-pyrrolo [2,3-d]pyrimidin-6-yl)phenyl) methacrylamide], C=C(C)C(=O)Nc1ccc(-c2c(-c3ccc(N=S(=O)(N(C)CC)C(F)(F)F)c(F)c3)c3c(N)ncnc3n2C)cc1 (centres unmarked) [Compound 53, N-(4-(4-amino-5-(4-(((ethyl(methyl)amino)(oxo)(trifluoromethyl)-λ^6-sulfanylidene)amino)-3-fluorophenyl)-7-methyl-7H-pyrrolo[2,3-d]pyrimidin-6-yl)phenyl) methacrylamide] is 3.8-fold higher in IC50: 2.7 nM for the first, 10.2 nM for the second. The first is the more potent here.

Going from C=C(C)C(=O)Nc1ccc(-c2c(-c3ccc(N=S4(=O)CC(OC)(OC)C4)c(F)c3)c3c(N)ncnc3n2C)cc1 [Compound 10] to C=C(C)C(=O)Nc1ccc(-c2c(-c3ccc(N=S4(=O)CC(C)(C)C4)c(F)c3)c3c(N)ncnc3n2C)cc1 [Compound 57, N-(4-(4-amino-5-(4-((3,3-dimethyl-1-oxo-1λ^6-thiocyclobutyl-1-ylidene)amino) -3-fluorophenyl) -7-methyl-7H-pyrrolo [2,3-d]pyrimidin-6-yl)phenyl) methacrylamide], the IC50 falls from 107 nM to 17.4 nM (6.1-fold).

Going from C=CC(=O)Nc1ccc(-c2c(-c3ccc(N=S4(=O)CCCC4)cc3)c3c(N)ncnc3n2C)c(F)c1 [Compound 110] to C=C(C)C(=O)Nc1ccc(-c2c(-c3ccc(N=S4(=O)CCCC4)cc3)c3c(N)ncnc3n2CCN(C)C)c(F)c1 [Compound 78, N-(4-(4-amino-7-(2-(dimethylamino)ethyl) -5-(4-((1-hydroperoxide-1λ^6-thiophene-1-ylidene)amino)phenyl) -7H-pyrrolo [2,3-d]pyrimidin-6-yl) -3-fluorophenyl) methacrylamide], the IC50 rises from 2 nM to 585 nM (290-fold). The first is the more potent here.

[2H]C([2H])([2H])n1c(-c2ccc(NC(=O)C(=C)C)cc2F)c(-c2ccc(N=S3(=O)C=CC(C)(C)C3)cc2)c2c(N)ncnc21 (centres unmarked) [Compound 108, N-(4-(4-amino-5-(4-((3,3-dimethyl-1-oxo-1 λ^6-thiophene-1-ylidene)amino)phenyl) -7-(methyl-d3) -7H-pyrrolo [2,3-d]pyrimidin-6-yl) -3-fluorophenyl) methacrylamide] and [2H]c1cc(-c2c(-c3ccc(NC(=O)C(=C)C)cc3F)n(C)c3ncnc(N)c23)cc([2H])c1N=S1(=O)CCCC1 [Compound 113] are within 1.5-fold of each other in IC50: 2.5 nM for the first, 1.8 nM for the second.

Compared with C=C(C)C(=O)Nc1ccc(-c2c(-c3ccc(N=S4(=O)CCCC4)c(F)c3)c3c(N)ncnc3n2C)c(C#N)c1 [Compound 25, N-(4-(4-amino-5-(3-fluoro-4-((1-oxotetrahydro-1 λ^6-thiophene-1-ylidene)amino)phenyl) -7-methyl-7H-pyrrolo [2,3-d]pyrimidin-6-yl) -3-cyanophenyl) methacrylamide], C=C(C)C(=O)Nc1ccc(-c2c(-c3ccc(N=S4(=O)CCC4)c(F)c3)c3c(N)ncnc3n2C)c(C)c1 [Compound 99] is 14-fold lower in IC50: 38.7 nM for the first, 2.7 nM for the second. The second is the more potent here.

Going from CC#CC1=Nc2ccc(-c3c(-c4ccc(N=S(C)(C)=O)c(F)c4)c4c(N)ncnc4n3C)cc2C(C)(C)O1 [Compound 19] to C=C(C)C(=O)Nc1ccc(-c2c(-c3ccc(N=S(C)(C)=O)cc3)c3c(N)ncnc3n2C)cc1 [Compound 45], the IC50 falls from 2980 nM to 83.1 nM (36-fold). The second is the more potent here.

Going from CN(C)C/C=C/C(=O)Nc1ccc(-c2c(-c3ccc(N=S4(=O)CCCCC4)c(F)c3)c3c(N)ncnc3n2C)cc1 [Compound 16, (E)-N-(4-(4-amino-5-(3-fluoro-4-((1-oxotetrahydro-2H-1 λ^6-thiopyran-1-ylidene)amino)phenyl) -7-methyl-7H-pyrrolo [2,3-d]pyrimidin-6-yl) - phenyl) -4-(dimethylamino) -2-butenamide] to C/C=C/C(=O)Nc1ccc(-c2c(-c3ccc(N=S4(=O)CCCCC4)c(F)c3)c3c(N)ncnc3n2C)cc1 [Compound 15, (E)-N-(4-(4-amino-5-(3-fluoro-4-((1-oxotetrahydro-2H-1λ^6-thiopyran-1-ylidene)amino)phenyl)-7-methyl-7H-pyrrolo [2,3-d]pyrimidin-6-yl) -phenyl)-2-butenamide], the IC50 falls from 50.1 nM to 15.4 nM (3.3-fold).

First: C=C(F)C(=O)N1CC=C(c2c(-c3ccc(N=S4(=O)CCCCC4)cc3)c3c(N)ncnc3n2C)CC1 [Compound 65, 1-(4-(4-amino-7-methyl-5-(4-((1-oxotetrahydro-2H-1 λ^6-thiopyran-1-ylidene)amino)phenyl)-7H-pyrrolo[2,3-d]pyrimidin-6-yl)-3,6-dihydropyridine-1(2H)-yl) -2-fluoropropan-2-enyl-1-one]
Second: C=C(C)C(=O)Nc1ccc(-c2c(-c3ccc(N=S4(=O)CCCCC4)cc3F)c3c(N)ncnc3n2C)cc1 [Compound 43, N-(4-(4-amino-5-(2-fluoro-4-((1-oxotetrahydro-2H-1λ^6-thiopyran-1-ylidene)amino)phenyl) -7-methyl-7H-pyrrolo [2,3-d]pyrimidin-6-yl)phenyl) methacrylamide]
The IC50 of the first is 8.5-fold higher: 121 nM for the first, 14.2 nM for the second. The second is the more potent here.

First: C=C(C)C(=O)Nc1ccc(-c2c(-c3ncc(N=S4(=O)CCCCC4)cc3F)c3c(N)ncnc3n2C)cc1 [Compound 36, N-(4-(4-amino-5-(3-fluoro-5-((1-oxotetrahydro-2H-1 λ^6-thiopyran-1-ylidene)amino)pyridin-2-yl) -7-methyl-7H-pyrrole [2,3-d]pyrimidin-6-yl)phenyl) methacrylamide]
Second: C=C(C)C(=O)Nc1ccc(-c2c(-c3ccc(N=S4(=O)CCCCC4)c(C)c3)c3c(N)ncnc3n2C)cc1 [Compound 34, N-(4-(4-amino-7-methyl-5-(3-methyl-4-((1-oxotetrahydro-2H-1λ^6-thiopyran-1-ylidene)amino)phenyl) -7H-pyrrolo [2,3-d]pyrimidin-6-yl)phenyl) methacrylamide]
The IC50 of the first is 3-fold higher: 53.5 nM for the first, 17.9 nM for the second. The second is the more potent here.

Compared with C=C(C)C(=O)Nc1ccc(-c2c(-c3ccc(N=S(=O)(N(C)C)C(F)(F)F)cc3)c3c(N)ncnc3n2C)cc1 (centres unmarked) [Compound 28], C=C(C)C(=O)Nc1ccc(-c2c(-c3ccc(N=S(=O)(C4CC4)C4CC4)cc3)c3c(N)ncnc3n2C)cc1 [Compound 93, N-(4-(4-amino-5-(4-((dicyclopropyl (oxo)-λ^6-sulfaneylidene)amino)phenyl)-7-methyl-7H-pyrrolo [2,3-d]pyrimidin-6-yl)phenyl) methacrylamide] is 35-fold higher in IC50: 0.9 nM for the first, 31.7 nM for the second.

Going from C=C(C)C(=O)Nc1ccc(-c2c(-c3ccc(N=S4(=O)CCCCC4)c(Cl)c3)c3c(N)ncnc3n2C)cc1 [Compound 40, N-(4-(4-amino-5-(3-chloro-4-((1-oxotetrahydro-2H-1λ^6 - thiopyran-1-ylidene)amino)phenyl) -7-methyl-7H-pyrrolo [2,3-d]pyrimidin-6-yl)phenyl) methacrylamide] to C=C(COC)C(=O)Nc1ccc(-c2c(-c3ccc(N=S4(=O)CCCC4)c(F)c3)c3c(N)ncnc3n2C)cc1 [Compound 18, N-(4-(4-amino-5-(3-fluoro-4-((1-oxotetrahydro-1 λ^6-thiophene-1-ylidene)amino)phenyl) -7-methyl-7H-pyrrolo [2,3-d]pyrimidin-6-yl)phenyl) -2-(methoxymethyl) acrylamide], the IC50 rises from 7.7 nM to 21.5 nM (2.8-fold). The first is the more potent here.

Going from C=C(C)C(=O)Nc1ccc(-c2c(-c3ccc(N=S4(=O)CC5(COC5)C4)c(F)c3)c3c(N)ncnc3n2C)cc1 [Compound 11] to C=C(C)C(=O)Nc1ccc(-c2c(-c3ccc(N=S4(=O)CCCCC4)c(OC)c3)c3c(N)ncnc3n2C)c(F)c1 [Compound 5, N-(4-(4-amino-5-(3-methoxy-4-(1-oxotetrahydro-2H-1λ^6-thiopyran-1-imino)phenyl)-7-methyl-7H-pyrrolo [2,3-d]pyrimidin-6-yl)-3-fluorophenyl) methacrylamide], the IC50 falls from 172 nM to 29.3 nM (5.9-fold). The second is the more potent here.

First: C=C(C)C(=O)Nc1ccc(-c2c(C3=CCC(=S(=O)(CC)C(C)C)C=C3)c3c(N)ncnc3n2C)cc1 (centres unmarked) [Compound 62, N-(4-(4-amino-5-(4-(ethyl(isopropyl)(oxo)-1λ^6-sulfanylidene)phenyl) -7-methyl-7H-pyrrolo[2,3-d]pyrimidin-6-yl)-phenyl)methacrylamide]
Second: [2H]c1c([2H])c(-c2c(-c3ccc(NC(=O)C(=C)C)cc3F)n(C)c3ncnc(N)c23)c([2H])c([2H])c1N=S1(=O)CCCC1 [Compound 114, N-(4-(4-amino-7-methyl-5-(4-((1-oxidetetrahydro-1 λ^6-thiophene-1-ylidene)amino)phenyl-2,3,5,6-d4) -7H-pyrrolo [2,3-d]pyrimidin-6-yl) -3-fluorophenyl) methacrylamide]
The IC50 of the first is 7.7-fold higher: 9.2 nM for the first, 1.2 nM for the second.
